Read-outs that look alike come from different tables or passages of the source. Marks after values point to notes of the source that are not given here.
Legend:
[1] = system: NF54 strain of P. falciparum; experiment: Parasite growth inhibition, CQ-sensitive NF54 strain; format: cell-based, Plasmodium falciparum
β-hematin (βH) formation = experiment: NP-40 detergent mediated β-hematin inhibition assay; format: biochemical; settings: read-out: βH inhibition IC50; NP-40 assay
[2] = system: D10 strain of P. falciparum; experiment: Parasite growth inhibition, CQ-sensitive D10 strain; format: cell-based, Plasmodium falciparum
[3] = 1:1 complex, 40% DMSO; cited from earlier work
[4] = Association constant with Fe; format: binding; settings: for logK (association constant with Fe(III)PPIX): 1:1 complex, 7.5 μM hematin, 40% v/v DMSO, pH 7.5; for Binding constant ratio relative to 12c (K/K12c): from logK values
[5] = system: parasitized erythrocyte, CQ-sensitive D10 strain; experiment: Inoculum effect measurement of cellular accumulation; format: cell-based, Plasmodium falciparum; settings: IC50 vs initial parasitemia
[6] = In vitro metabolic stability, human liver microsomes
[7] = system: Chinese hamster ovarian (CHO) cell line; settings: read-out: CHO IC50
Kinetic solubility = settings: for Kinetic solubility FaSSIF / Kinetic solubility pH 6.5: pH 6.5
[8] = system: D6 strain of P. falciparum; settings: read-out: parasite activity against the D6 strain, HTS; cited from earlier work
[9] = In vitro metabolic stability, mouse liver microsomes
[10] = In vitro metabolic stability, rat liver microsomes
K1 CQ-resistant strain = settings: read-out: K1 parasite IC50
[11] = read-out: NF54 parasite IC50, CQ-sensitive NF54 strain
[12] = read-out: D10 parasite IC50, CQ-sensitive D10 strain

Q: Which results are given for “N,N-Di(pyridin-4-yl)isophthalamide [Compound 15k]”?
A: IC50 [1, 11]: 9 ± 4 µM; IC50 (β-hematin (βH) formation): 507 ± 33 µM

Q: What does the source list for “5-Cyano-N,N-diphenylisophthalamide [Compound 15e]”?
A: IC50 [2, 12]: 5.2 µM; IC50 (β-hematin (βH) formation): 4.4 ± 0.2 µM

Q: With “5-Methyl-N,N-diphenylisophthalamide [Compound 15g]” as the compound, how does the IC50 [1, 11] read?
A: The IC50 was 146 ± 1 µM.

Q: What about the IC50 (β-hematin (βH) formation) of the same compound?
A: The IC50 was over 1000 µM.

Q: With `CCN(CC)CCCC(C)Nc1ccnc2cc(Cl)ccc12` (stereo not shown) [CQ, chloroquine, reference compound] as the compound, how does the IC50 ([2]; Plasmodium falciparum, D10, read-out: D10 parasite IC50) read?
A: The IC50 was 0.021 ± 0.002 µM.

Q: And the IC50 ([1]; Plasmodium falciparum, NF54, read-out: NF54 parasite IC50)?
A: Its IC50 is 0.008 ± 0.002 µM.

Q: And the “logK (association constant with Fe(III)PPIX)” value [3]?
A: The value was 5.52 ± 0.03 ^a.

Q: Which results are given for `O=C(Nc1ccncc1)c1cc([N+](=O)[O-])cc([N+](=O)[O-])c1` [Compound 12c, 3,5-Dinitro-N-(pyridin-4-yl)benzamide]?
A: logK (association constant with Fe(III)PPIX) [4]: 3.20 ± 0.36; Binding constant ratio relative to 12c (K/K12c) [4]: 1

Q: With “5-(tert-Butyl)-N,N-diphenylisophthalamide [Compound 15j]” as the compound, how does the IC50 [1, 11] read?
A: The IC50 was 8.1 ± 0.5 µM.

Q: And the IC50 (β-hematin (βH) formation)?
A: Its IC50 is over 1000 µM.

Q: With “N,N-bis(4-((Dimethylamino)methyl)phenyl)-5-nitroisophthalamide [Compound 17]” as the compound, how does the IC50 [1, 11] read?
A: Its IC50 is 1.5 ± 0.2 µM.

Q: What about the IC50 (β-hematin (βH) formation) of the same compound?
A: The IC50 was 7.9 ± 0.2 µM.

Q: What about the “inoculum effect / cellular accumulation” value [5] of the same compound?
A: Its value is “insignificant inoculum effect”.

Q: Which IC50 [2, 12] does the source give for “5-Cyano-N,N-di(pyridin-4-yl)isophthalamide [Compound 15d]” here?
A: The IC50 was 2 ± 0.2 µM.

Q: What about the IC50 [1, 11] of the same compound?
A: The IC50 was 1.9 ± 0.2 µM.

Q: What about the IC50 (β-hematin (βH) formation) of the same compound?
A: Its IC50 is 6.34 ± 0.09 µM.

Q: Which results are given for “5-Nitro-N,N-di(pyridin-4-yl)isophthalamide [Compound 15a]”?
A: IC50 [2, 12]: 0.9 ± 0.1 µM; IC50 [1, 11]: 0.7 ± 0.2 µM; Degradation half-life [6]: >2.5 h; Hepatic extraction (EH) [6]: <0.42; In vitro clearance [6]: <11.6 μL/min/mg protein; IC50 [7]: > 275 µM; Kinetic solubility FaSSIF (Kinetic solubility): 13 µM; Kinetic solubility pH 2 (Kinetic solubility): 199.7 μM; Kinetic solubility pH 6.5 (Kinetic solubility): < 5 μM; IC50 [8]: 0.19 µM; IC50 (β-hematin (βH) formation): 4.3 ± 0.1 µM; inoculum effect / cellular accumulation [5]: larger accumulation ratios; Degradation half-life [9]: >2.5 h; Hepatic extraction (EH) [9]: <0.33; In vitro clearance [9]: <11.6 μL/min/mg protein; Degradation half-life [10]: >2.5 h; Hepatic extraction (EH) [10]: <0.30; In vitro clearance [10]: <11.6 μL/min/mg protein

Q: Which IC50 [1, 11] does the source give for “N,N-Di(pyridin-4-yl)pyridine-2,6-dicarboxamide [Compound 15o]” here?
A: Its IC50 is over 315 µM.

Q: And the IC50 (β-hematin (βH) formation)?
A: Its IC50 is 260 ± 7 µM.

Q: For “5-Methyl-N,N-di(pyridin-4-yl)isophthalamide [Compound 15f]”, which IC50 [1, 11] is on record?
A: The IC50 was 2.5 ± 0.6 µM.

Q: And the “logK (association constant with Fe(III)PPIX)” value [4]?
A: Its value is 3.92 ± 0.21.

Q: And the “Binding constant ratio relative to 12c (K/K12c)” value [4]?
A: The value was 5.24.

Q: What about the IC50 (β-hematin (βH) formation) of the same compound?
A: Its IC50 is 8 ± 1 µM.

Q: What does the source list for “5-(tert-Butyl)-N,N-di(pyridin-3-yl)isophthalamide [Compound 15i]”?
A: IC50 [2, 12]: 0.7 ± 0.1 µM; IC50 [1, 11]: 0.6 ± 0.1 µM; Degradation half-life [6]: 2.365 h; Hepatic extraction (EH) [6]: 0.4; In vitro clearance [6]: 14.1 μL/min/mg protein; IC50 [7]: 185 µM; Kinetic solubility FaSSIF (Kinetic solubility): 153.6 µM; Kinetic solubility pH 2 (Kinetic solubility): 197.2 μM; Kinetic solubility pH 6.5 (Kinetic solubility): 92.7 μM; IC50 (β-hematin (βH) formation): 6.8 ± 0.1 µM; IC50 (K1 CQ-resistant strain): 1.7 ± 0.4 µM; Degradation half-life [9]: 0.873 h; Hepatic extraction (EH) [9]: 0.6; In vitro clearance [9]: 130.3 μL/min/mg protein; Degradation half-life [10]: 1.55 h; Hepatic extraction (EH) [10]: 0.4; In vitro clearance [10]: 33.5 μL/min/mg protein

Q: For “5-Methoxy-N,N-diphenylisophthalamide [Compound 15n]”, which IC50 [1, 11] is on record?
A: Its IC50 is 37 ± 13 µM.

Q: What about the IC50 (β-hematin (βH) formation) of the same compound?
A: Its IC50 is over 1000 µM.

Q: For “N,N-Diphenylpyridine-2,6-dicarboxamide [Compound 15p]”, which IC50 [1, 11] is on record?
A: Its IC50 is over 315 µM.

Q: And the IC50 (β-hematin (βH) formation)?
A: Its IC50 is over 1000 µM.

Q: For “5-Nitro-N,N-diphenylisophthalamide [Compound 15c]”, which IC50 [1, 11] is on record?
A: Its IC50 is 1.4 ± 0.2 µM.

Q: And the IC50 (β-hematin (βH) formation)?
A: Its IC50 is 7 ± 0.2 µM.

Q: Which IC50 [1, 11] does the source give for “5-Methoxy-N,N-di(pyridin-4-yl)isophthalamide [Compound 15m]” here?
A: Its IC50 is 3 ± 0.5 µM.

Q: And the IC50 (β-hematin (βH) formation)?
A: The IC50 was 22 ± 1 µM.

Q: With “5-Nitro-N,N-di(pyridin-3-yl)isophthalamide [Compound 15b]” as the compound, how does the IC50 [1, 11] read?
A: The IC50 was 1.32 ± 0.04 µM.

Q: And the IC50 (β-hematin (βH) formation)?
A: The IC50 was 4.7 ± 0.7 µM.

Q: With `O=C(Nc1ccccc1)c1cc(C(=O)Nc2nc3ccccc3[nH]2)cc([N+](=O)[O-])c1` [Compound 18, N^1-(1H-Benzo[d]imidazol-2-yl)-5-nitro-N^3-phenylisophthalamide] as the compound, how does the IC50 ([1]; Plasmodium falciparum, NF54, read-out: parasite activity (maximum dose concentration)) read?
A: The IC50 was over 249 µM.

Q: For “5-(tert-Butyl)-N,N-di(pyridin-4-yl)isophthalamide [Compound 15h]”, which IC50 [1, 11] is on record?
A: The IC50 was 1.6 ± 0.2 µM.

Q: And the IC50 (β-hematin (βH) formation)?
A: Its IC50 is 13.3 ± 0.7 µM.

Reference: publication PMC4945415 (Journal of medicinal chemistry, 2016)
